Activity calls are given as the source filed them. The calls are words filed in the database; no cut-off is given here.
Experiments:
[1] = Inhibition of HIV protease assessed as reduction in enzyme-mediated substrate hydrolysis using Abz-Thr-Ile-Nle-Phe(NO2)-Gln-Arg fluorogenic substrate; parameters: species or system Human immunodeficiency virus
[2] = molecular target: Protease (Human immunodeficiency virus 1) (UniProt Q9YQ12); assay: Inhibition of GFP-tagged HIV1 protease transfected in HEK293 cells at 10 to 30 uM incubated for 24 hrs by FACS analysis; type: cell-based
Chain of Protease (Human immunodeficiency virus 1) (Q9YQ12 as listed by the source): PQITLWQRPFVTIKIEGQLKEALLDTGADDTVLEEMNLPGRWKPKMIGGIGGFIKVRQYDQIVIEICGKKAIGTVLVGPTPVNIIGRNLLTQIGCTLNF

[3] = Cytotoxicity in HEK293 cells assessed as reduction in cell viability by MTT assay; type: cell-based; details: human
[4] = Cytotoxicity in HEK293 cells assessed as reduction in cell viability after 24 hrs by MTT assay; type: cell-based; details: human
[5] = molecular target: Protease (Human immunodeficiency virus 1) (UniProt Q9YQ12); assay: Inhibition of GFP-tagged HIV1 protease transfected in HEK293 cells at 30 uM incubated for 24 hrs by fluorescence microscopy; type: cell-based
[6] = system: Protease (Human immunodeficiency virus 1), Q9YQ12 [V32I]; assay: Inhibition of GFP-tagged HIV1 protease V32I mutant transfected in HEK293 cells at 30 uM incubated for 24 hrs by fluorescence microscopy; type: cell-based
Chain of Protease (Human immunodeficiency virus 1), Q9YQ12 [V32I] (Q9YQ12 entry or part of it V32I): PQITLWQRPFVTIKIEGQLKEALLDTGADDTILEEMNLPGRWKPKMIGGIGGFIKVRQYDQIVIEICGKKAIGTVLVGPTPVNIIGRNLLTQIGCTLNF

[7] = Intrinsic clearance in human liver microsomes assessed per mg protein; type: ADME, Microsome; details: read-out: CLH
[8] = system: Protease (Human immunodeficiency virus 1), Q9YQ12 [V82A]; assay: Inhibition of GFP-tagged HIV1 protease V82A mutant transfected in HEK293 cells at 30 uM incubated for 24 hrs by fluorescence microscopy; type: cell-based
Chain of Protease (Human immunodeficiency virus 1), Q9YQ12 [V82A] (Q9YQ12 entry or part of it V82A): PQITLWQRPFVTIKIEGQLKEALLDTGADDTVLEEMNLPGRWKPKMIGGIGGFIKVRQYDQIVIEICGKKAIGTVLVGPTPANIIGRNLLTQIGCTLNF

[9] = molecular target: Protease (Human immunodeficiency virus 1) (UniProt Q9YQ12); assay: Inhibition of GFP-tagged HIV1 protease transfected in HEK293 cells at 30 uM incubated for 24 hrs by FACS analysis; type: cell-based
[10] = molecular target: Protease (Human immunodeficiency virus 1) (UniProt Q9YQ12); assay: Inhibition of GFP-tagged HIV1 protease transfected in HEK293 cells at 10 uM incubated for 24 hrs by fluorescence microscopy; type: cell-based
[11] = Intrinsic clearance in rat liver microsomes assessed per mg protein; type: ADME, Microsome; details: read-out: CLH
[12] = system: Protease (Human immunodeficiency virus 1), Q9YQ12 [V82A]; assay: Inhibition of GFP-tagged HIV1 protease V82A mutant transfected in HEK293 cells at 10 uM incubated for 24 hrs by fluorescence microscopy; type: cell-based
[13] = system: Protease (Human immunodeficiency virus 1), Q9YQ12 [V32I]; assay: Inhibition of GFP-tagged HIV1 protease V32I mutant transfected in HEK293 cells at 10 uM incubated for 24 hrs by fluorescence microscopy; type: cell-based
[14] = molecular target: Protease (Human immunodeficiency virus 1) (UniProt Q9YQ12); assay: Inhibition of GFP-tagged HIV1 protease transfected in HEK293 cells at 10 uM incubated for 24 hrs by FACS analysis; type: cell-based

Compound | IC50 [1] | inhibition [2] | CC50 [3] | CC50 at 24 h [4] | inhibition call (active/not active) [5] | inhibition [6] | microsomal CLint [7] | inhibition [8] | inhibition [9] | inhibition [10] | microsomal CLint [11] | inhibition [12] | inhibition [13] | inhibition [14]
COc1ccc(S(=O)(=O)N(CC(C)C)C[C@@H](O)CNC(=O)Oc2ccc3sccc3c2)cc1 | 0.049 µM | inactive | > 100 µM | > 60 µM | inactive |  |  |  |  |  |  |  |  | 
COc1ccc(S(=O)(=O)N(CC(C)C)C[C@@H](O)[C@H](Cc2ccccc2)NC(=O)Oc2ccc3occc3c2)cc1 | ≤ 0.0006 µM | Active | > 100 µM | > 60 µM | Active | Active | 121 µL/min/mg | Active | Active | Active | 26.8 µL/min/mg |  |  | 
COc1ccc(S(=O)(=O)N(CC(C)C)C[C@@H](O)[C@H](Cc2ccccc2)NC(=O)Oc2ccc3[nH]ccc3c2)cc1 | ≤ 0.0006 µM | Active | 2.8 µM | > 60 µM | Active |  | 548 µL/min/mg |  |  |  | 522 µL/min/mg | Active | Active | Active
COc1ccc(S(=O)(=O)N(CC(C)C)C[C@@H](O)CNC(=O)Oc2ccc3[nH]ccc3c2)cc1 | 13.4 µM | inactive |  | > 60 µM | inactive |  |  |  |  |  |  |  |  | 
COc1ccc(S(=O)(=O)N(CC(C)C)C[C@@H](O)[C@H](Cc2ccccc2)NC(=O)Oc2ccc3sccc3c2)cc1 | 0.0108 µM | inactive |  | > 60 µM | inactive |  |  |  |  |  |  |  |  | 
COc1ccc(S(=O)(=O)N(CC(C)C)C[C@@H](O)CNC(=O)Oc2ccc3occc3c2)cc1 | 15.4 µM | inactive |  | > 60 µM | inactive |  |  |  |  |  |  |  |  | 
CC(C)CN(C[C@@H](O)[C@H](Cc1ccccc1)NC(=O)O[C@H]1CO[C@H]2OCC[C@H]21)S(=O)(=O)c1ccc(N)cc1 |  | Active |  |  | Active |  |  |  |  |  |  |  |  | 

— ChEMBL document CHEMBL4392835, “New heteroaryl carbamates: Synthesis and biological screening in vitro and in mammalian cells of wild-type and mutant HIV-protease inhibitors” (Bioorg Med Chem, 2019)
